Where two headings read alike, the source gives them in different places.
How the values were obtained:
BRD2(1) = biological target: T1, BRD2(1) (Homo sapiens, UniProt P25440); assay: Protein stability shift assay (thermal shift), BRD2(1); assay type: binding; conditions: 10 μM ligand
T1 construct: the second as compared with the first bromodomain of these BRDs

BRD2(2) = biological target: T2, BRD2(2) (Homo sapiens, UniProt P25440); assay: Protein stability shift assay (thermal shift), BRD2(2); assay type: binding; conditions: 10 μM ligand
T2 construct: the second as compared with the first bromodomain of these BRDs
T2 sequence (P25440 344-453 limits assumed): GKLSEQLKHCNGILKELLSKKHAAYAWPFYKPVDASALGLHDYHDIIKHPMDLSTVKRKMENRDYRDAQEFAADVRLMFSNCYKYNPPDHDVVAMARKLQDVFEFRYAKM

BRD3(1) = biological target: T3, BRD3(1) (Homo sapiens, UniProt Q15059); assay: Protein stability shift assay (thermal shift), BRD3(1); assay type: binding; conditions: 10 μM ligand
T3 construct: the second as compared with the first bromodomain of these BRDs
T3 sequence (Q15059 34-140 limits assumed): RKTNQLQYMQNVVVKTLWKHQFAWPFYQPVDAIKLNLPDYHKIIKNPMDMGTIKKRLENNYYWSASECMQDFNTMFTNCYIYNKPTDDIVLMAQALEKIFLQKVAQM

BRD4(2) = biological target: T4, BRD4(2) (Homo sapiens, UniProt O60885); assay: Protein stability shift assay (thermal shift), BRD4(2); assay type: binding; conditions: 10 μM ligand
T4 construct: the second as compared with the first bromodomain of these BRDs

BRDT(1) = biological target: T5, BRDT(1) (Homo sapiens, UniProt Q58F21); assay: Protein stability shift assay (thermal shift), BRDT(1); assay type: binding; conditions: 10 μM ligand
T5 construct: the second as compared with the first bromodomain of these BRDs

BRDT(2) = biological target: T6, BRDT(2) (Homo sapiens, UniProt Q58F21); assay: Protein stability shift assay (thermal shift), BRDT(2); assay type: binding; conditions: 10 μM ligand
T6 construct: the second as compared with the first bromodomain of these BRDs

BAZ2B = biological target: T7, BAZ2B (Homo sapiens, UniProt Q9UIF8); assay: Protein stability shift assay (thermal shift), BAZ2B; assay type: binding; conditions: 10 μM ligand
T7 construct: Thermal shift (Δtm^obs) of human bromodomains in the presence of 10 μM compound
T7 sequence (Q9UIF8 2060-2164 limits assumed): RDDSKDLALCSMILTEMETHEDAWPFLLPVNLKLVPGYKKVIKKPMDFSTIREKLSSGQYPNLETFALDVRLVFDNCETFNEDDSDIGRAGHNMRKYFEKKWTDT

CREBBP = biological target: T8, CREBBP (Homo sapiens, UniProt Q92793); assay: Protein stability shift assay (thermal shift), CREBBP; assay type: binding; conditions: 10 μM ligand
T8 construct: Thermal shift (Δtm^obs) of human bromodomains in the presence of 10 μM compound
T8 sequence (Q92793 1085-1192 limits assumed): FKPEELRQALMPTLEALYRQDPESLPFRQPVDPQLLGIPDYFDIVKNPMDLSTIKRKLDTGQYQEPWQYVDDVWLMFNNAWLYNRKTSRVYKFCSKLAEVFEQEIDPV

PB1(5) = biological target: T9, PB1(5) (Homo sapiens, UniProt Q86U86); assay: Protein stability shift assay (thermal shift), PB1(5); assay type: binding; conditions: 10 μM ligand
T9 construct: Thermal shift (Δtm^obs) of human bromodomains in the presence of 10 μM compound
T9 sequence (Q86U86 653-763 limits assumed): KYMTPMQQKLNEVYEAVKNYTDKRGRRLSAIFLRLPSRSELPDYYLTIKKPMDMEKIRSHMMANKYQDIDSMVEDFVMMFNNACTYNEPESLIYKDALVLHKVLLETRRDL

PCAF = biological target: T10, PCAF (Homo sapiens, UniProt Q92831); assay: Protein stability shift assay (thermal shift), PCAF; assay type: binding; conditions: 10 μM ligand
T10 construct: Thermal shift (Δtm^obs) of human bromodomains in the presence of 10 μM compound
T10 sequence (Q92831 723-827 limits assumed): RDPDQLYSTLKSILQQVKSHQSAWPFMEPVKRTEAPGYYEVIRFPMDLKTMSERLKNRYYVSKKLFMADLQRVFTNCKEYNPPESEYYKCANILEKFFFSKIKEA

[1] = system: apoA-I production by primary human hepatocytes; assay: apoA-I production by primary human hepatocytes (ELISA); assay type: cell-based; conditions: cultured human hepatocytes, highest concentration tested (100 μM)
[2] = system: apoA-I production by Hep-G2 cells; parameters: method as in PMID 20513599; conditions: HepG2 cells, 40 μM; cited from earlier work
[3] = some of the participants; cited from earlier work
[4] = system: fibrosarcoma cells (HT1080); assay: Cytotoxicity: mitochondrial membrane potential (TMRM)
BRD3(2) = BRD3(2) (Homo sapiens, UniProt Q15059); assay: Protein stability shift assay (thermal shift), BRD3(2); assay type: binding; parameters: the second as compared with the first bromodomain of these BRDs; conditions: 10 μM ligand
Chain of BRD3(2) (Q15059 306-415 limits assumed): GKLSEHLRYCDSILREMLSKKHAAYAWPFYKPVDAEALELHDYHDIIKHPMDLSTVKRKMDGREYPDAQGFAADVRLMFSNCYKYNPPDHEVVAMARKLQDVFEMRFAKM

BRD4(1) = BRD4(1) (Homo sapiens, UniProt O60885); assay: Protein stability shift assay (thermal shift), BRD4(1); assay type: binding; parameters: the second as compared with the first bromodomain of these BRDs; conditions: 10 μM ligand

T1 sequence (P25440 74-180 limits assumed): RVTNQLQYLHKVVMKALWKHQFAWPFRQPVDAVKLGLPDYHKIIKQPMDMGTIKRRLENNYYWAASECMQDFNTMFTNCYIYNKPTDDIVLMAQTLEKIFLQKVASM

SMILES: COc1cc(OC)c2c(=O)[nH]c(-c3cc(C)c(OCCO)c(C)c3)nc2c1 [RVX-208, reference compound]
- Thermal shift (ΔTm obs) BRD2(1) (BRD2(1)): 0.9
- Thermal shift (ΔTm obs) BRD2(2) (BRD2(2)): 4.0
- Thermal shift (ΔTm obs) BRD3(1) (BRD3(1)): 0.8
- Thermal shift (ΔTm obs) BRD4(2) (BRD4(2)): 3.4
- Thermal shift (ΔTm obs) BRDT(1) (BRDT(1)): 0.6
- Thermal shift (ΔTm obs) BRDT(2) (BRDT(2)): 4.0
- Thermal shift (ΔTm obs) BAZ2B (BAZ2B): −0.2
- Thermal shift (ΔTm obs) CREBBP (CREBBP): −0.2
- Thermal shift (ΔTm obs) PB1(5) (PB1(5)): 0.0
- Thermal shift (ΔTm obs) PCAF (PCAF): −0.4
- increase of apoA-I production [1]: up to 80%
- stimulation of apoA-I protein production [2]: 2 fold
- liver safety in human study [3]: signs of liver damage
- IC50 ([4]; Homo sapiens, HT-1080, 72 h, read-out: mitochondrial membrane potential in fibrosarcoma cells, IC50, 72 hours): 50 µM
- IC50 ([4]; read-out: mitochondrial membrane potential in fibrosarcoma cells, IC50, 72 hours): 49 µM
- Thermal shift (ΔTm obs) BRD3(2) (BRD3(2)): 4.0
- Thermal shift (ΔTm obs) BRD4(1) (BRD4(1)): 1.3

— paper PMC4147775, “Stimulation of Hepatic Apolipoprotein A-I Production by Novel Thieno-Triazolodiazepines: Roles of the Classical Benzodiazepine Receptor, PAF Receptor, and Bromodomain Binding” (Lipid insights, 2013)
